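These data come from cells grown in 96-well plates and exposed to compound for 48 hours at five concentrations. The concentration for 50% growth inhibition is given as GI50. TGI: concentration producing complete growth inhibition.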
What was measured:
Test in all cases: DTP human tumour cell line panel, 48 h
[1] = test system: OVCAR-4 ovarian
[2] = test system: SK-MEL-2 melanoma
[3] = test system: SNB-75 CNS
[4] = test system: A549 NSCLC
[5] = test system: SK-MEL-5 melanoma
[6] = test system: UACC-62 melanoma
[7] = test system: IGROV1 ovarian
[8] = test system: SF-539 CNS
[9] = test system: COLO 205 colon
[10] = test system: HCT-15 colon

| SMILES | TGI [1] [µM] | TGI [2] [µM] | TGI [3] [µM] | TGI [4] [µM] | TGI [5] [µM] | TGI [6] [µM] | TGI [7] [µM] | TGI [8] [µM] | TGI [9] [µM] | TGI [10] [µM] | GI50 [1] [nM] | GI50 [2] [nM] | GI50 [3] [nM] | GI50 [4] [µM] | GI50 [5] [nM] | GI50 [6] [nM] | GI50 [7] [nM] | GI50 [8] [nM] | GI50 [9] [nM] | GI50 [10] [nM] |
| --- | --- | --- | --- | --- | --- | --- | --- | --- | --- | --- | --- | --- | --- | --- | --- | --- | --- | --- | --- | --- |
| COC(=O)C(=O)C(C(=O)C(=O)Nc1ccc(Cl)cc1Cl)c1nc2ccc(Cl)cc2[nH]c1=O (centres undefined) | > 100 | > 100 | > 100 | > 100 | > 100 | > 100 | > 100 | > 100 | > 100 | > 100 |  |  |  |  |  |  |  |  |  |  |
| O=C(NCCc1ccccc1)C(c1csc2ccccc12)N(C(=O)CCl)c1ccc(-c2cnco2)cc1 (centres undefined) | 5.14 | 3.12 | 0.99 | 1.64 | 3.01 | 2.85 | 0.331 | 0.257 | 3.28 | 1.84 | 1700 | 1640 | 502 | 0.393 | 1620 | 1300 | 161 | 126 | 1560 | 596 |
| C[N+](C)(C)CC(=O)NC(=O)N/N=C\C(CC#N)CN(Cc1ccccc1)Cc1ccccc1 (centres undefined) | > 100 | > 100 | > 100 | > 100 | > 100 | > 100 | > 100 | > 100 | > 100 | > 100 |  |  |  |  |  |  |  |  |  |  |
| COc1ccc(/C=N\N2C(=O)Cc3ccccc32)cc1 | > 100 | > 100 | 62 | > 100 | > 100 | > 100 | > 100 | > 100 | > 100 | > 100 |  |  |  |  |  |  |  |  |  |  |
| COc1cccc(-n2cnc3c(N/N=C/c4ccncc4)ncnc32)c1 | > 25 | > 25 | > 25 | > 25 | > 25 | > 25 | > 25 | > 25 | > 25 | > 25 | 11600 | 11600 | 7450 | 17.6 | 10500 | 8200 | 8650 | > 18900 | 11400 | 9830 |
| CC1=NN(C(=O)CC(=O)Nc2ccccc2)C(=O)C1N=Nc1ccc(S(N)(=O)=O)cc1 (centres undefined) | > 100 | > 100 | > 100 | > 100 | > 100 | 92.6 | > 100 | > 100 | > 100 | > 100 |  |  |  |  |  |  |  |  |  |  |
| COc1cc2c3c(c1OC)C1(C=CC(=O)C=C1)CC3N(C(=O)OC(C)(C)C(Cl)(Cl)Cl)CC2 (centres undefined) | 40.3 | 25.2 | 34.5 | 49.4 | 20.7 | 28.4 | 41.9 | 30.4 | 29 | 23.6 |  |  |  |  |  |  |  |  |  |  |
| Cc1cc(C)c(-c2noc(-c3ccc(Cl)cc3)c2C2=NCCN2)c(C)c1 | > 100 | 43.8 | 37.3 | > 100 | 24 | 33.8 | 76.7 | 32 | 35.2 | 57.4 |  |  |  |  |  |  |  |  |  |  |
| NS(=O)(=O)OC[C@H]1O[C@@H](n2cnc3c(N[C@H]4CCc5ccccc54)ncnc32)[C@H](O)[C@@H]1O | 0.626 | 0.434 | 1 | 3 | 0.151 | 0.374 | 1 | 0.117 | 0.22 | 7.14 | 243 | 98 | 358 | 0.871 | 36.9 | 45.1 | 174 | 35.1 | 43 | 857 |
| COc1cc(C2C3=C(COC3=O)N(CCO)c3cc4c(cc32)OCCO4)cc(OC)c1O (centres undefined) | > 50 | > 13.4 | > 50 | > 50 | > 20.5 | > 50 | > 16.5 | > 14.8 | 12 | > 50 | 3780 |  | 713 | 9.71 | 1290 | 961 | 1170 | 1220 | 1670 | 11700 |
| O=C1/C(=C/c2ccc(F)cc2)CN(Cc2cn(CCNc3ccnc4cc(Cl)ccc34)nn2)C/C1=C\c1ccc(F)cc1 | 8.75 | 3.73 | 3.62 | 4.23 | 3.06 | 2.95 | 2.93 | 3.27 | 2.88 | 3.21 | 1810 | 1940 | 1600 | 1.88 | 1700 | 1560 | 1500 | 1830 | 1500 | 1400 |
| CC(C)=CCNc1ncnc2c1ncn2C1OC(COP(=O)(O)O)C(O)C1O (centres undefined) | 34.3 | 99.8 | 34.1 | > 100 | > 100 | > 100 | > 100 | 38.9 | > 58.8 | > 64.1 | 5010 | 16300 | 2060 | 7.39 | > 73700 | 9030 | 11000 | 4000 | 4590 | 2720 |
| COc1ccc2c(c1)C(CCN)C(=O)N2 (centres undefined) | > 100 | > 100 | > 100 | > 100 | > 100 | > 100 | > 100 | > 100 | > 100 | > 100 |  |  |  |  |  |  |  |  |  |  |
| CC(=O)NC1=NC(=O)/C(=C/c2ccc(Cl)cc2Cl)N1C | > 100 | > 100 | > 100 | > 100 | > 100 | 88.2 | > 100 | > 100 | > 100 | > 100 |  |  |  |  |  |  |  |  |  |  |
| O=C(O)/C=C/C(=O)Nc1cccc2c1-c1ccccc1C2=O | > 100 | 32.9 | > 58.4 | > 100 | > 100 | > 100 | > 100 | 19.2 | 36.1 | > 100 |  |  |  |  |  |  |  |  |  |  |
| COc1ncn(C2C=C(CO)C(O)C2O)c(=O)n1 (centres undefined) | > 100 | > 100 | > 100 | > 100 | > 100 | > 100 | > 100 | > 100 | > 100 | > 100 |  |  |  |  |  |  |  |  |  |  |
